The results in this text go back to patent US4774248A, “Methods of treating depression and depressive states using 5-phenyl-1,4,5,6-tetrahydropyrimidine derivatives” (priority 1985, dated 1988).

SMILES strings stand for the structures. “Also recorded” adds a separate entry of the source.

Series [1] concerns trembling and head twitches induced by 5-hydroxytryptophan (5-HTP). Briefly: Interaction with 5-hydroxytryptophan in association with an MAOI (nialamide). Type of series: in vivo, male mice. The conditions noted are these: for all the effects of 5-HTP: reference substances, in the presence of an MAOI; for head twitches: i.p., nialamide + (±)-5-HTP, male mice; for trembling: reference β-adrenergic stimulants, 5-HTP + MAOI. The procedure:
The purpose of the procedure used is to investigate the activity of each product according to the invention as regards the trembling induced by 5-hydroxytryptophan (5-HTP) in association with an MAOI (in this case nialamide).
Each test product, in solution in distilled water, is administered intraperitoneally in a volume of 20 ml/kg to male mice.
Groups of 10 mice receive nialamide (20 mg/kg, administered gastrically) at time T-18 h, each test product at time T-0.5 h and then (±)-5-HTP (20 mg/kg, administered intraperitoneally) at time T. Immediately after the injection of the (±)-5-HTP, the mice are individually placed in transparent plastic boxes. The generalized trembling, the partial trembling and the head twitches are noted on a yes/no basis for 2 h.

For the next series, the system named is male mice. Briefly: Acute toxicity, intraperitoneal (LD0, LD30, LD60, LD100). Type of series: in vivo. The conditions noted are these: intraperitoneal. The procedure: (§1) The results of toxicological and neuropsychopharmacological tests which were carried out with the products according to the invention have been summarized below. In these tests, solutions of the said products in distilled water were administered intraperitoneally in a volume of 20 ml/kg to male mice and in a volume of 5 ml/kg to male rats.

The subject of series [2] is mice. As to the kind of experiment: Overall behavior and reactivities in mice. Type of series: in vivo. To be noted: i.p. The procedure: as §1
(§2) Groups of 3 animals are observed before and then 0.25 h, 0.50 h, 1 h, 2 h, 3 h and 24 h after the administration of CRL 41 378. The following observations are made:
(§3) Groups of 3 animals are observed before and then 0.25 h, 0.50 h, 1 h, 2 h, 3 h and 24 h after the administration of CRL 41 329.

For the next series, the system named is rats. As to the kind of experiment: Overall behavior and reactivities in rats. The class given is in vivo. To be noted: i.p. How it is done: as §1, §2, §3
Series [3] relates to hypothermia, righting behavior and stereotypies induced by apomorphine. As to the kind of experiment: Interaction with apomorphine in mice. The class given is in vivo. To be noted: i.p. How it is done:
as §1
CRL 41 378 is administered to groups of 6 mice 30 minutes before the subcutaneous injection of 1 or 16 mg/kg of apomorphine.

In series [4] the test system is hypothermia and ptosis induced by reserpine. As to the kind of experiment: Interaction with reserpine. The class given is in vivo. The conditions noted are these: mice, i.p.; reserpine 2.5 mg/kg. The procedure: as §1
Four hours after the intraperitoneal injection of 2.5 mg/kg of reserpine, groups of 12 mice receive CRL 41 378.

Series [5] relates to hypothermia, trembling and peripheral cholinergic symptoms induced by oxotremorine. As to the kind of experiment: Interaction with oxotremorine. Type of series: in vivo. To be noted: mice, i.p.; oxotremorine 0.5 mg/kg. How it is done:
as §1
CRL 41 378 is administered to groups of 6 mice 0.5 h before the intraperitoneal injection of 0.5 mg/kg of oxotremorine.

Series [6] concerns mice. Briefly: Electric shock. The class given is in vivo. The conditions noted are these: i.p. How it is done: as §1
The test is performed on groups of 10 mice 30 minutes after the administration of CRL 41 378.

Series [7] has as its system mice. Briefly: Spontaneous motility (actimeter). Type of series: in vivo. To be noted: i.p. How it is done:
as §1
0.5 h after they have received CRL 41 378, the mice (6 per dose, 12 control animals) are placed in an actimeter, where their motility is recorded for 30 minutes.

Series [8] concerns mice. Briefly: Intergroup aggressiveness. Type of series: in vivo. To be noted: mice, i.p. The procedure:
as §1
After they have stayed for 3 weeks in the two halves of a cage divided by an opaque partition, groups of 3 mice receive CRL 41 378. Half an hour later, the two groups from the same cage are brought together by removal of the partition and the number of fights which occur in 10 minutes is noted.

Series [9] relates to mice. Briefly: Motility reduced by habituation to the enclosure. Type of series: in vivo. The conditions noted are these: i.p. The procedure: as §1
After they have stayed in the actimeters for 18 hours, the mice (6 per dose, 12 control animals) receive CRL 41 378. They are immediately returned to their respective enclosures and, half an hour later, their motility is recorded for 30 minutes.

Series [10] relates to mice. Briefly: Motility reduced by hypoxic aggression (acute hypobaric anoxia). The class given is in vivo. To be noted: i.p. How it is done: In these tests, solutions of the said products in distilled water were administered intraperitoneally in a volume of 20 ml/kg to male mice and in a volume of 5 ml/kg to male rats.
The subject of series [11] is mice. As to the kind of experiment: Behavioral despair (forced immersion). The class given is in vivo. To be noted: mice which have been forcibly immersed, i.p.; hydrochloride. The procedure: as §1
Half an hour after they have received CRL 41 378, groups of 6 mice are placed in a beaker filled with water to a height of 6 cm. The total period of immobility between the 2nd and 6th minutes following immersion is noted.

Series [12] relates to central nervous system (CNS). As to the kind of experiment: Neuropsychopharmacological profile (conclusions of the tests). The class given is in vivo, mice and rats. How it is done:
as §1

Take `CNCCCN1c2ccccc2CCc2ccccc21` [desipramine, reference compound]: in series [1], the “all the effects of 5-HTP” value is “potentiate all the effects of 5-HTP in the presence of an MAOI”.
`CCNC(C)Cc1cccc(C(F)(F)F)c1` (stereo not drawn) [fenfluramine, reference compound]: the “all the effects of 5-HTP” value in series [1] is reported as “potentiate all the effects of 5-HTP in the presence of an MAOI”.
Turning to `CC(C)NCC(O)c1cc(O)cc(O)c1` (stereo not drawn) [ociprenaline, reference compound], in series [1], the head twitches result is listed as “no modification of the trembling or head twitches” and the trembling result is on record as “no modification of the trembling or head twitches”.
Regarding `CC(NCCc1ccc(O)cc1)C(O)c1ccc(O)cc1` (stereo not drawn) [ritodrine, reference compound], in series [1], the head twitches entry is on record as “no modification of the head twitches” and the trembling entry was “moderate potentiation of the trembling”.
Regarding `CC(C)(C)NCC(O)c1cc(O)cc(O)c1` (stereo not drawn) [terbutaline, reference compound], in [1], the head twitches result is recorded as “no modification of the trembling or head twitches” and the trembling entry was “no modification of the trembling or head twitches”.
For the compound `CC(C)NCC(O)c1ccc(O)c(O)c1` (stereo not drawn) [isoprenaline, reference compound], in series [1], the head twitches entry was “distinct potentiation of the trembling and head twitches”; the trembling result was “distinct potentiation of the trembling and head twitches”.
For the compound `CN1C=NCC(c2ccccc2)C1.Cl` (stereo not drawn) [CRL 41 337, 1-methyl-5-phenyl-1,4,5,6-tetrahydropyrimidine hydrochloride], in the series with male mice, the “LD0 (maximum non-lethal dose)” value is recorded as “greater than 256 mg/kg”, the LD60 result is “about 500 mg/kg” and the “LD100 (minimum dose lethal to all the animals)” value is “less than or equal to 1000 mg/kg”. For the same compound, the “overall behavior and reactivities” value in the series on mice [2] (128 mg/kg) is “moderate hypothermia (-1.6 °C one hour after administration) for 3 h”. Moreover, the moderate hypothermia in the series with mice [2] (128 mg/kg, one hour after administration) was -1.6 °C. Moreover, the “overall behavior and reactivities” value with mice [2] (2 to 32 mg/kg) is “no distinct modification of the behavior and reactivities compared with the control animals”. In the series with rats (1 and 4 mg/kg), the “overall behavior and reactivities” value is “no distinct modification of the behavior and reactivities compared with the control animals”. Besides, the “overall behavior and reactivities” value in the series on rats (16 and 64 mg/kg) is “mydriasis”. The “action on hypothermia induced by apomorphine” value in series [3] was “antagonism of the hypothermia induced by apomorphine, reserpine and oxotremorine”. Also, in series [4], the “action on hypothermia induced by reserpine” value was “antagonism of the hypothermia induced by apomorphine, reserpine and oxotremorine”; the “action on ptosis induced by reserpine” value is listed as “antagonism of the ptosis induced by reserpine”. Moreover, the “action on hypothermia induced by oxotremorine” value in [5] was “antagonism of the hypothermia induced by apomorphine, reserpine and oxotremorine”. For the same compound, the “lethal effects of electric shock” value with mice [6] is on record as “at a high dose, CRL 41 337 causes aggravation of the lethal effects of electric shock”. Also, the spontaneous motor activity entry with mice [7] is recorded as “a decrease in the motor activity”. In addition, the “intergroup aggressiveness (number of fights)” value in the series with mice [8] is given as “a decrease in the intergroup aggressiveness”. Also, the “resumption in the motor activity of mice accustomed to their enclosure” value with mice [9] is “a resumption in the motor activity of mice accustomed to their enclosure”. In the series with mice [10], the “motor recovery after acute hypobaric hypoxia” value is given as “at high doses, CRL 41 337 paradoxically causes an improvement in the motor recovery of mice after acute hypobaric hypoxia”. The period of immobility result in the series on mice [11] is recorded as “no modification of the period of immobility due to despair; also recorded: no effect on the immobility due to despair”. For the same compound, in [12] (i.p.), the antidepressant effects result is “antidepressant effects”, the peripheral anticholinergic activity entry is listed as “no anticholinergic action” and the stimulant effects result was “no stimulation of the spontaneous motor activity”. Besides, in [12] (i.p., hydrochloride), the “peripheral α-adrenergic stimulant effects” value was “peripheral α-adrenergic stimulant effects; also recorded: mydriasis in rats” and the sedative effects entry is given as “sedative effects; also recorded: hypothermia”. The overall neuropsychopharmacological profile result in series [12] (summary, hydrochloride) is “acts principally as an antidepressant; also recorded: resemble those of β-adrenergic stimulants”.
Take `CC(N)Cc1ccccc1` (stereo not drawn) [amphetamine, reference compound]: in series [1], the “all the effects of 5-HTP” value is “potentiate all the effects of 5-HTP in the presence of an MAOI”.
With `CC(C)(C)NCC(O)c1ccc(O)c(CO)c1` (stereo not drawn) [salbutamol, reference compound], in [1], the head twitches entry was “no modification of the head twitches” and the trembling entry is “moderate potentiation of the trembling”.
Take `CC(Cc1ccc(O)cc1)NCC(O)c1cc(O)cc(O)c1` (stereo not drawn) [fenoterol, reference compound]: in [1], the head twitches result is on record as “moderate potentiation of the head twitches” and the trembling entry is recorded as “distinct potentiation of the trembling”.
